ChEMBL document CHEMBL6153074, “Discovery of novel dual tubulin and MMPs inhibitors for the treatment of lung cancer and overcoming drug resistance” (Eur J Med Chem, 2025)
Activity calls are given as the source filed them. No cut-off for these calls is given here.

What was measured:
A549 [1] = experiment: Induction of apoptosis in human A549 cells assessed as increase in Bax level at 0.5 uM incubated for 24 hrs by Western blot analysis; type: functional, cell-based
Tubulin (Homo sapiens) [2] = biological target: T1, Tubulin (Homo sapiens) (UniProt P68371+Q9H4B7+P0DPH7+P68366+Q13509+Q71U36+P04350+Q3ZCM7+P07437+P68363+Q9BQE3+Q6PEY2+Q13885+Q9BVA1+Q9BUF5); experiment: Disruption of microtubule network in human A549 cells assessed as contraction towards cell border at 2.5 to 5 uM incubated for 24 hrs by immunofluorescence based analysis; details: dose 2.5-5 µM
A549 [3] = experiment: Induction of cell cycle arrest in human A549 cells assessed as accumulation at S phase at 0.5 uM incubated for 24 hrs by PI staining based flow cytometry (reference value: 37.95 %); type: functional
[4] = Antiproliferative activity against human MCF-10A cells by CCK8 assay; type: toxicity, cell-based
A549 [5] = experiment: Induction of apoptosis in human A549 cells assessed as necrotic cells at 0.25 uM incubated for 24 hrs by Annexin V-FITC/PI staining based flow cytometry (reference value: 0.13 %); type: functional
Tubulin (Homo sapiens) [6] = biological target: T1, Tubulin (Homo sapiens); experiment: Inhibition of tubulin polymerization (unknown origin) incubated for 65 mins by fluorescence based analysis; type: protein-complex assay; details: dose 0.625-20 µM
[7] = Toxicity in BALB/c mouse xenografted with human A549 cells assessed as effect on kidney at 10 to 20 mg/kg, ip for 3 weeks administered on every 2 days by H and E staining based analysis; type: organism-based; details: in vivo, 504 h, dose 10-20 mg/kg
A549 [8] = experiment: Anti-migration activity in human A549 cells assessed as migration rate at 0.5 uM incubated for 24 hrs by wound healing assay (reference value: 73.94 %); type: functional
A549 [9] = experiment: Antitumor activity against human A549 cells xenografted in BALB/c mouse at 20 mg/kg, ip for 3 weeks administered on every 2 days relative to control; type: functional; details: A549, 504 h, read-out: TGI
A549 [10] = experiment: Induction of cell cycle arrest in human A549 cells assessed as accumulation at G2 phase at 0.25 uM incubated for 24 hrs by PI staining based flow cytometry (reference value: 3.37 %); type: functional
A549 [11] = experiment: cells; details: Homo sapiens
Description: Antiproliferative activity against human A549 cells by CCK8 assay

A549 [12] = experiment: Induction of cell cycle arrest in human A549 cells assessed as accumulation at G1 phase at 0.5 uM incubated for 24 hrs by PI staining based flow cytometry (reference value: 58.67 %); type: functional
MCF7 = experiment: Antiproliferative activity against human MCF7 cells by CCK8 assay
[13] = Toxicity in BALB/c mouse xenografted with human A549 cells assessed as effect on spleen at 10 to 20 mg/kg, ip for 3 weeks administered on every 2 days by H and E staining based analysis; type: organism-based; details: in vivo, 504 h, dose 10-20 mg/kg
A549 [14] = experiment: Induction of mitochondrial membrane potential loss in human A549 cells at 0.25 uM incubated for 24 hrs by JC-1 dye based analysis (reference value: 3.14 %); type: functional
A549 [15] = experiment: Induction of DNA damage in human A549 cells assessed as increase in gamma-H2AX level at 0.5 uM incubated for 24 hrs by immunofluorescence based analysis; type: functional, cell-based
A549 [16] = experiment: Induction of mitochondrial fragmentation in human A549 cells assessed as increase in green fluorescence at 0.5 uM incubated for 24 hrs by JC-1 dye based analysis; type: functional, cell-based
[17] = Stability of compound in PBS at pH 7.4 measured for 24 to 72 hrs; type: physicochemical; details: buffer, time 24-72 hrs
A549 [18] = experiment: Induction of apoptosis in human A549 cells assessed as late apoptotic cells at 0.25 uM incubated for 24 hrs by Annexin V-FITC/PI staining based flow cytometry (reference value: 1.01 %); type: functional
A549 [19] = experiment: Antitumor activity against human A549 cells xenografted in BALB/c mouse assessed as decrease in Ki67 level at 20 mg/kg, ip for 3 weeks administered on every 2 days by IHC analysis; type: functional, organism-based
[20] = Toxicity in BALB/c mouse xenografted with human A549 cells assessed as effect on lung at 10 to 20 mg/kg, ip for 3 weeks administered on every 2 days by H and E staining based analysis; type: organism-based; details: in vivo, 504 h, dose 10-20 mg/kg
[21] = Toxicity in BALB/c mouse xenografted with human A549 cells assessed as effect on liver at 10 to 20 mg/kg, ip for 3 weeks administered on every 2 days by H and E staining based analysis; type: organism-based; details: in vivo, 504 h, dose 10-20 mg/kg
A549 [22] = experiment: Induction of cell cycle arrest in human A549 cells assessed as accumulation at S phase at 0.25 uM incubated for 24 hrs by PI staining based flow cytometry (reference value: 37.95 %); type: functional
NCI-H460 = experiment: Antiproliferative activity against human NCI-H460 cells by CCK8 assay
A549 [23] = experiment: Induction of intracellular ROS accumulation in human A549 cells at 0.5 uM incubated for 24 hrs by DCFH-DA dye based flow cytometry (reference value: 4.96 %); type: functional
A549 [24] = experiment: Induction of apoptosis in human A549 cells assessed as decrease in Bcl-2 level at 0.5 uM incubated for 24 hrs by Western blot analysis; type: functional, cell-based
[25] = Toxicity in BALB/c mouse xenografted with human A549 cells assessed as body weight loss at 10 to 20 mg/kg, ip for 3 weeks administered on every 2 days; type: organism-based; details: in vivo, 504 h, dose 10-20 mg/kg
A549 [26] = experiment: Induction of apoptosis in human A549 cells assessed as viable cells at 0.25 uM incubated for 24 hrs by Annexin V-FITC/PI staining based flow cytometry (reference value: 95.82 %); type: functional; details: read-out: Activity
A549 [27] = experiment: Induction of apoptosis in human A549 cells assessed as early apoptotic cells at 0.25 uM incubated for 24 hrs by Annexin V-FITC/PI staining based flow cytometry (reference value: 3.04 %); type: functional
A549 [28] = experiment: Induction of mitochondrial membrane potential loss in human A549 cells at 0.5 uM incubated for 24 hrs by JC-1 dye based analysis (reference value: 3.14 %); type: functional
A549 [29] = experiment: Induction of apoptosis in human A549 cells assessed as late apoptotic cells at 0.5 uM incubated for 24 hrs by Annexin V-FITC/PI staining based flow cytometry (reference value: 1.01 %); type: functional
[30] = Antiproliferative activity against human L02 cells by CCK8 assay; type: toxicity, cell-based
A549 [31] = experiment: Induction of cell cycle arrest in human A549 cells assessed as accumulation at G2 phase at 0.5 uM incubated for 24 hrs by PI staining based flow cytometry (reference value: 3.37 %); type: functional
Tubulin (Homo sapiens) [32] = biological target: T1, Tubulin (Homo sapiens); experiment: Disruption of microtubule network in human A549 cells assessed as cell disorganisation at 2.5 to 5 uM incubated for 24 hrs by immunofluorescence based analysis; details: dose 2.5-5 µM
[33] = Stability of compound assessed as carboxylesterase (unknown origin)-mediated drug hydrolysis incubated for 4 hrs by RP-HPLC analysis; type: ADME; details: human
A549 [34] = experiment: Induction of intracellular ROS accumulation in human A549 cells assessed as increase in green fluorescence incubated for 24 hrs by DCFH-DA dye based confocal microscopy; type: functional, cell-based
A549 [35] = experiment: Induction of cell cycle arrest in human A549 cells assessed as decrease in cdc25c by Western blot analysis; type: functional, cell-based

Question: Which Activity (A549 [1]) does the source give for CCOP(=O)(OCC)C(Nc1ccc(CC(=O)Oc2cc(/C=C/C(=O)c3cc(OC)c(OC)c(OC)c3)ccc2OC)cc1)c1cccc([N+](=O)[O-])c1 (configuration not stated) here?
Answer: Active

Question: And the Activity (Tubulin (Homo sapiens) [2])?
Answer: Active

Question: And the Activity (A549 [3])?
Answer: 3.19%

Question: What about the IC50 [4] of the same molecule?
Answer: 2710 nM

Question: What about the Activity (A549 [5]) of the same molecule?
Answer: 0.3%

Question: And the inhibition (Tubulin (Homo sapiens) [6])?
Answer: Dose-dependent-effect

Question: What about the Activity [7] of the same molecule?
Answer: Non-toxic

Question: And the Activity (A549 [8])?
Answer: 25.17%

Question: And the inhibition in vivo at 20 mg/kg (A549 [9])?
Answer: 74.7%

Question: What about the Activity (A549 [10]) of the same molecule?
Answer: 37.79%

Question: What about the IC50 (A549 [11]) of the same molecule?
Answer: 154 nM

Question: What about the Activity (A549 [12]) of the same molecule?
Answer: 15.53%

Question: And the IC50 (MCF7)?
Answer: 253 nM

Question: And the Activity [13]?
Answer: Non-toxic

Question: And the Activity (A549 [14])?
Answer: 27.19%

Question: And the Activity (A549 [15])?
Answer: Active

Question: And the Activity (A549 [16])?
Answer: Active

Question: What about the Stability [17] of the same molecule?
Answer: Stable

Question: And the Activity (A549 [18])?
Answer: 3.62%

Question: And the Activity (A549 [19])?
Answer: Active

Question: What about the Activity [20] of the same molecule?
Answer: Non-toxic

Question: What about the Activity [21] of the same molecule?
Answer: Non-toxic

Question: And the Activity (A549 [22])?
Answer: 20.12%

Question: What about the IC50 (NCI-H460) of the same molecule?
Answer: 186 nM

Question: And the Activity (A549 [23])?
Answer: 70.79%

Question: What about the Activity (A549 [24]) of the same molecule?
Answer: Active

Question: What about the Activity [25] of the same molecule?
Answer: Non-toxic

Question: And the viability at 0.25 µM (A549 [26])?
Answer: 79.9%

Question: What about the Activity (A549 [27]) of the same molecule?
Answer: 16.18%

Question: What about the Activity (A549 [28]) of the same molecule?
Answer: 56.15%

Question: What about the Activity (A549 [29]) of the same molecule?
Answer: 6.34%

Question: What about the IC50 [30] of the same molecule?
Answer: 2210 nM

Question: What about the Activity (A549 [31]) of the same molecule?
Answer: 81.23%

Question: What about the Activity (Tubulin (Homo sapiens) [32]) of the same molecule?
Answer: Active

Question: What about the Stability [33] of the same molecule?
Answer: Unstable

Question: And the Activity (A549 [34])?
Answer: Active

Question: And the Activity (A549 [35])?
Answer: Active
